Assay [1] concerns SARS-CoV-2. Nature of the assay: Antiviral activity against SARS-CoV-2 B.1.1.7 variant assessed as neutralization viral infection in Vero cells by measuring cytopathic effect incubated for 4 days by crystal violet staining based assay. To be noted: Severe acute respiratory syndrome coronavirus 2, B.1.1.7, Vero, 96 h. Type of assay: functional, organism-based. A general note: Damage to the host cells serves as the signal in cytopathic effect assays.

For assay [2], the system named is SARS-CoV-2. Nature of the assay: Antiviral activity against SARS-CoV-2 B.1.351 variant assessed as neutralization viral infection in Vero cells by measuring cytopathic effect incubated for 4 days by crystal violet staining based assay. Type of assay: functional, organism-based. To be noted: Severe acute respiratory syndrome coronavirus 2, B.1.351, Vero, 96 h.

What is called IC50 is the concentration that inhibits the measured activity by half. Regarding `CC[C@@H](C)[C@@H](NC(=O)CNC(=O)[C@@H](CC(C)C)NC(=O)CNC(=O)[C@@H](CCCCN)NC(=O)CNC(=O)[C@@H](CC(=O)O)NC(=O)[C@@H](Cc1ccccc1)NC(=O)[C@H](N)CCCNC(=N)N)C(=O)N[C@H](Cc1ccc(O)cc1)C(=O)N[C@H](CCC(N)=O)C(=O)N[C@H](Cc1ccc(O)cc1)C(=O)N[C@H](CCSC)C(=O)N[C@H](CCC(=O)O)C(=O)N[C@H](CCC(=O)O)C(=O)N[C@@H](C(=O)N[C@H](CCC(=O)O)C(=O)N[C@H](Cc1cnc[nH]1)C(=O)N[C@H](C)C(=O)N[C@H](C)C(=O)N[C@H](CO)C(=O)N[C@H](CCCNC(=N)N)C(=O)N[C@H](Cc1ccccc1)C(=O)N[C@H](C)C(=O)N[C@H](Cc1ccc(O)cc1)C(=O)N[C@H](Cc1ccccc1)C(=O)N[C@H](Cc1ccccc1)C(=O)N[C@H](Cc1ccc(O)cc1)C(=O)N[C@H](CCC(N)=O)C(=O)N[C@H](Cc1cnc[nH]1)C(=O)N[C@H](CC(C)C)C(=O)N[C@H](C)C(=O)O)[C@H](C)CC`, the IC50 with SARS-CoV-2 [1] is 33.4 µM; in the assay with SARS-CoV-2 [2], 11.1 µM.
Consider `CC[C@@H](C)[C@@H](NC(=O)[C@@H](Cc1cnc[nH]1)NC(=O)[C@H](NC(=O)[C@@H](CCC(=O)O)NC(=O)[C@@H](CCC(=O)O)NC(=O)[C@@H](CCSC)NC(=O)[C@@H](CC(C)C)NC(=O)[C@@H](C)NC(=O)[C@@H](Cc1ccc(O)cc1)NC(=O)[C@@H](CC(C)C)NC(=O)[C@@H](C)NC(=O)[C@H](NC(=O)[C@@H](CCC(N)=O)NC(=O)[C@H](N)CC(C)C)[C@H](C)O)[C@H](C)CC)C(=O)N[C@H](C)C(=O)N[C@H](C)C(=O)N[C@H](CC(C)C)C(=O)N[C@H](CCC(=O)O)C(=O)N[C@H](CCCCN)C(=O)N[C@@H](C(=O)N[C@H](Cc1c[nH]c2ccccc12)C(=O)N[C@@H](C(=O)N[C@H](C)C(=O)N[C@H](CC(C)C)C(=O)N[C@H](CCCNC(=N)N)C(=O)N[C@H](Cc1cnc[nH]1)C(=O)N[C@H](CCC(N)=O)C(=O)N[C@H](Cc1ccc(O)cc1)C(=O)N[C@@H](C(=O)O)[C@H](C)O)[C@H](C)O)[C@H](C)O`, for which the IC50 in the assay on SARS-CoV-2 [1] is 5.57 µM; in the assay on SARS-CoV-2 [2], 7.37 µM.

These data come from ChEMBL document CHEMBL5030552, “Computational Design of Potent D-Peptide Inhibitors of SARS-CoV-2” (J Med Chem, 2021).
